Tests used:
[1] = target: D3 dopamine receptor (Homo sapiens, UniProt P35462)
[2] = target: T1, human 5-HT1A receptor (Homo sapiens, UniProt P08908); test: 5-HT1A receptor binding ([3H]8-hydroxy-DPAT displacement, CHO-K1 membranes)
T1 construct: expressed in transfected cells; host or cells: CHO-K1
T1 sequence (P08908 1-422): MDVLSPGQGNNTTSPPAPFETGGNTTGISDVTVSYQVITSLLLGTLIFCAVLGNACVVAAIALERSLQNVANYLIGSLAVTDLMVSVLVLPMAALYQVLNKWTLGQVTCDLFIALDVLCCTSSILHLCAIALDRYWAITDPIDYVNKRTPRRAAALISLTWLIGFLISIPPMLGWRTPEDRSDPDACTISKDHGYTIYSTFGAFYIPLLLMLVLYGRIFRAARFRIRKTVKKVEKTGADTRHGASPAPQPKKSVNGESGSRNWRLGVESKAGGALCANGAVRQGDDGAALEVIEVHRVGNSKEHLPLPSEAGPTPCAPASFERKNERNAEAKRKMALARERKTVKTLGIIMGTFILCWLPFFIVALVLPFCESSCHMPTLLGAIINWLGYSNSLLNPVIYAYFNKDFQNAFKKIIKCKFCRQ
Method: Because the 5-HT1A receptor is a commonly observed off-site binding site for benzamide N-phenylpiperazine ligands, compounds were simultaneously screened for binding of our compounds at the human 5-HT1A receptor expressed in CHO-K1 cells, using the radioligand [^3H]-8-hydroxy-DPAT (8-OH-DPAT) (Table 2). Based upon the analysis of the displacement assay shown in Table 2, the orthosteric compounds 3c–f appeared to bind with low affinity at human 5-HT1A receptors.
10 μg of membranes from CHO-K1 cells expressing the human 5-HT1A receptor were suspended in 50 mM Tris-HCl, 10 mM MgSO4, 0.5 mM EDTA, and 0.1% (w/v) ascorbic acid, pH 7.4 and test ligands (91 nM for single point radioligand displacement assay and 1 nM to 1 μM for full competition assay) were incubated with 0.25 nM [^3H]8-hydroxy-DPAT (PerkinElmer, Boston, MA, USA) for 60 min at room temperature. The nonspecific binding was determined using 10 μM metergoline (Sigma, St. Louis, MO, USA). After incubation, the bound ligands were filtered using an M-24 Brandel filtration system (Brandel, Gaithersburg, MD, USA), collected on glass fiber papers (Whatman grade 934-AH, GE Healthcare Bio-Sciences, Pittsburgh, PA, USA), and the radioactivity was quantitated using a MicroBeta2 Microplate scintillation counter 2450 (PerkinElmer, Boston, MA, USA).

[3] = tested on: unilateral 6-hydroxydopamine lesioned (hemiparkinsonian) rats; test: L-dopa-dependent abnormal involuntary movement (AIM) inhibition in hemiparkinsonian rats; format: in vivo, rat; settings: unilaterally lesioned male rats, 10 mg/kg, L-dopa and benserazide 8 mg/kg each
Method: First, we have previously published that D3 receptor selective compounds could attenuate a hallucinogen-dependent head twitch response (HTR) in male DBA/2J mice. […] Second, we previously reported that D3 vs. D2 dopamine receptor subtype selective ligands could attenuate L-dopa dependent abnormal involuntary movement (AIM) scores in unilaterally lesioned (hemiparkinsonian) male rats, which is a model for L-dopa-Induced Dyskinesia (LID). […]
AIMs ratings were performed as previously described. The severity of the AIMs was quantified using lesioned rats that were observed individually in their home cages at 15 min intervals, starting 15 min after the injection of L-dopa for approximately 2 h. The AIMs were scored in four categories: (1) axial AIMs, including dystonic or choreiform torsion of the trunk and neck towards the side contralateral to the lesion; (2) limb AIMs, including jerky and/or dystonic movements of the forelimb contralateral to the lesion; (3) orolingual AIMs, including twitching of orofacial muscles with empty masticatory movements and protrusion of the tongue towards the side contralateral to the lesion and (4) locomotive AIMs, including increased locomotion with contralateral side bias. […]
The effect of Group was assessed using two-way analysis of variance (ANOVA) with time as the repeated measure. […]

Chain of D3 dopamine receptor (P35462 whole entry): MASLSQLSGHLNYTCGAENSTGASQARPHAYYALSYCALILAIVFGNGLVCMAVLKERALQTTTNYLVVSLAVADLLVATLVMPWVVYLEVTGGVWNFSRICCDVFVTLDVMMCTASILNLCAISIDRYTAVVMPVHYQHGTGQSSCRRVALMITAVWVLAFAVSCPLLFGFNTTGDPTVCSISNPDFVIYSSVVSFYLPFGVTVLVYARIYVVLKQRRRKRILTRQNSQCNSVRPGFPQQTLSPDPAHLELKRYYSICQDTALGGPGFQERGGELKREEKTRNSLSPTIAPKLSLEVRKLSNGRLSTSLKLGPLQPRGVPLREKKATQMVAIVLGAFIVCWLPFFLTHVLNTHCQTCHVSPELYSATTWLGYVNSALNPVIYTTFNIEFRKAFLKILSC

Ki [1]: 1.4 ± 0.2 nM
D2:D3 Selectivity ([1]; ratio of D2 and D3 Ki values (Table 1)): 467
5-HT1A affinity lower than D3 affinity ([2]; 5-HT1A Ki vs. D3 Ki): approximately 140 fold
Ki ([2]; full competition curve, [3H]-8-hydroxy-DPAT, at least three experiments, read-out: Ki at 5-HT1A receptor): 199 nM
5-HT1A receptor affinity/displacement in words ([2]; radioligand displacement assessment at 91 nM): decreased binding affinity
inhibition at 0.091 µM ([2]; single point displacement of [3H]-8-hydroxy-DPAT, 91 nM test compound, CHO-K1, ± S.E.M., n ≥ 3): -3.3 ± 15.1%
SMILES: O=C(NCCCCN1CCN(c2ccccc2F)CC1)c1ccc(-c2ccsc2)cc1 [Compound 6a]
L-dopa dependent AIM scores [3]: attenuate the AIM scores

Reference: PMC8198181, “Evaluation of Substituted N-Phenylpiperazine Analogs as D3 vs. D2 Dopamine Receptor Subtype Selective Ligands” (Molecules, 2021)
